Results taken from a melting point compilation (Tetko et al.; mined from patent text by program, amines drawn as free bases though some values may be those of a salt).

Point of comparison: `O=C(NCCCCN1CCC(c2c[nH]c3ccccc23)CC1)c1sc(-c2ccc(C(F)(F)F)cc2)nc1CO`, melting point 235 °C. Against it:
- CN1CC(CN2CCN(c3ccccc3)CC2)OC1=O (stereo not drawn) — lower, 110 to 112 °C
- CC(=O)N1CCc2c(sc3nc4ccccc4n23)C1 — lower, 181 to 186 °C
- O=C(CBr)CCc1ccc(Br)cc1 — lower, 63 to 64 °C
- CCOC(=O)CO[C@H]1CC[C@H](CCN(C(=O)c2ccccc2)S(=O)(=O)c2ccc(Cl)cc2)CC1 — lower, 81 to 82 °C
- CC(C)(C)c1nnc(-c2nn(-c3ccc(F)cc3F)c3c2C2CCC3C2)s1 (stereo not drawn) — lower, 109 to 111 °C
- O=C(Nc1cccnc1)N1CCN(c2nc(-c3cccc(F)c3F)cs2)CC1 — lower, 172 to 173 °C
- CCN1CCNC(=O)C1c1ccc(N)cc1 (stereo not drawn) — lower, 153 to 154 °C
- COc1ccc(N2CCN(c3c(C)c(C)c4c(c3C)C(O)(c3ccc(OC)cc3)C(C)(C)O4)CC2)cc1 (stereo not drawn) — lower, 157 to 159 °C
- O=C(O)CCc1cn(Cc2ccc(OCc3csc(-c4ccccc4)n3)cc2)cc1-c1ccccc1 — lower, 111 to 112 °C
- CCCCCCCCCCCCCCCCCCOc1ccc(C(=O)C(=O)N(CC(=O)O)CC(=O)O)cc1 — lower, 130 to 132 °C
- CCN(CC)CC1CCCCN1CC(=O)N1c2cc(Cl)ccc2C(=O)Nc2cccnc21 (stereo not drawn) — lower, 168 to 169 °C
- O=C(O)c1ccc(C(c2ccc(C(=O)O)cc2)(c2ccc(C(=O)O)cc2)C(F)(F)F)cc1 — higher, 366 to 367 °C
- CC1(C)CCc2c(-c3ccco3)nc3sc4c(NCc5ccccn5)ncnc4c3c2C1 — lower, 233 °C
- CC(C)(C)c1cc(C=C2SC(=S)NC2=O)cc(C(C)(C)C)c1O — higher, 260 °C
- O=C(O)c1cccc2ccc(-c3ccc([N+](=O)[O-])cc3)nc12 — higher, 272 to 274 °C
- COc1cc(CN2CCN(C(=O)C3=Cc4ccc(OC(=O)c5ccccc5)cc4CC3)CC2)cc(OC)c1OC — lower, 117 to 119 °C
- O=C(O)c1cn(C2CC2)c2cc(N3CCNCC3)c(F)c(F)c2c1=O — higher, > 300 °C
- COc1c(C#Cc2ccccc2)c(=O)c2ccc(Cl)cc2[nH]c1=O — lower, 204 to 205 °C
- Cc1[nH]cnc1CCCCNC(=O)c1ccccc1 — lower, 124 to 128 °C
- CC1(C)COC(=O)N1c1nc(-c2csc(C#N)c2)cs1 — higher, 249 to 252 °C
- CC(C)n1nc(-c2sc(NC(=O)C3CC3)nc2-c2ccccc2)ccc1=O — lower, 226 to 227 °C
- Cc1c(CC(=O)OCCO[N+](=O)[O-])cc(-c2ccc(S(C)(=O)=O)cc2)n1-c1ccc(F)cc1 — lower, 110 to 112 °C
- Cc1nn(C)c(C)c1C(=O)NC/C=C\COc1cc(CN2CCCCC2)ccn1 — lower, 75 to 77 °C
- COC(=O)C1CCC2C3CCC4CC(OC(=O)CCl)CCC4(C)C3C(OC(=O)CCl)CC12C (stereo not drawn) — lower, 149 to 155 °C
- COc1cc(C(=O)CS(=O)(=O)N(C)C)c(N)cc1Cl — lower, 59 to 62 °C
- CN1CCN(c2cccc(NC(=O)c3ccc(-c4ccncc4)cc3)c2)CC1 — lower, 232 to 233 °C
- COC1=C(C(=O)NNC(=O)Cc2ccc(F)cc2)CN(C(C)C)C1=O — lower, 157 to 158 °C
- CC1=C(C)C(=O)C(CCCCC#CCCCC#CCOC(N)=O)=C(C)C1=O — lower, 56 to 57 °C
- CCOC(=O)c1ccc2cc(I)ccc2n1 — lower, 119 to 121 °C
- CC(=O)N1c2ccccc2OP1c1ccccc1 (stereo not drawn) — lower, 73 to 75 °C
- Cc1oc(-c2ccccc2)nc1COc1ccc(COc2nn(Cc3ccccc3)cc2CCC(=O)O)cc1 — lower, 125 to 126 °C
- Cc1cccc(N2CCN(CCCOc3ccc4ccc(=O)oc4c3)CC2)c1C — lower, 89 °C
- CN1CCC(=C2c3cc(Cl)ccc3CC(=O)c3sccc32)CC1 — lower, 168 to 169 °C
- CC1(C2CCC3C4CC=C5CC(O)CC(O)C5(C)C4CCC32C)OCCO1 (stereo not drawn) — lower, 203 to 207 °C
- Clc1ccc(OCc2ccc(Cl)s2)cc1 — lower, 48 to 49 °C
- CC(C)c1ccc2nc3c(C(=O)O)cccn3c(=O)c2c1 — lower, 206 to 210 °C
- N#Cc1ccc(-c2cn(-c3ccc(I)cc3)c(S)n2)cc1 — higher, 285 to 290 °C
- N#Cc1c(N2CCCN(c3ccc(F)c(F)c3)CC2)cc[nH]c1=S — higher, 250 to 251 °C
- O=C(OC1CCN(Cc2ccc(Cl)cc2)CC1)c1ccc(Cl)cc1 — lower, 67 to 69 °C
- CCCn1c(=O)[nH]c(=O)c2nc(-c3ccc(/C=C/C(=O)O)cc3)[nH]c21 — higher, > 300 °C
- CN1CCN(c2cccc3ccc(NC(=O)c4ccc(Cl)cc4)cc23)CC1 — lower, 174 to 175 °C
- C=C(C)c1cn(-c2c(Cl)cc(C(F)(F)F)cc2Cl)nc1C#N — lower, 63 to 64 °C
- CCOc1ccc(S(=O)(=O)Cl)cc1OC — lower, 72 to 73 °C
- O=C(Nc1ccc(-c2ncc(-c3cccc(NC(=O)c4ccccn4)c3)[nH]2)cc1)c1ccccn1 — higher, 255 to 257 °C
- Cc1cccc(S(=O)(=O)n2cncn2)c1C#N — lower, 142 to 144 °C
- CCP(=O)(CC)Cc1ccc(NC(=O)/C=C/c2cccc(-c3ccc(C)cc3)c2)cc1 — lower, 197 to 198 °C
- O=[N+]([O-])c1cc(S(=O)(=O)NCCO)sc1Cl — lower, 99 °C
- CCOC(=O)c1cc(Cc2ccccc2)c(O)c2ccccc12 — lower, 79 to 80 °C
- Cc1cc(C2CCN(S(=O)(=O)C3(C(=O)NO)CCOCC3)CC2)ccc1-c1cccc(OC[C@H](O)CO)c1 — lower, 141 to 145 °C
- CN1CCCC1=NC(=O)Nc1ccc(C(F)(F)F)cc1 — lower, 128 to 131 °C
- Cc1cccc(Cl)c1NC(=O)Nc1cc(N[C@H]2CC[C@H](O)CC2)ncn1 — lower, 149 to 152 °C
- NC=C(C=O)c1cccc(C(F)(F)F)c1 — lower, 63 to 70 °C
- O=C(Nc1ccc2cc(CN3CCCC3)ccc2c1)c1ccc(-c2ccccc2)nc1 — lower, 212 to 214 °C
- CCCc1c(C(=O)C(C)C)c2ccc(C(N)=O)cc2n1Cc1ccc(F)cc1Cl — lower, 192 to 193 °C
- N#Cc1c(N2CCCC2)cccc1[N+](=O)[O-] — lower, 111 to 113 °C
- CCOC(=O)c1c(NC(C)=O)cccc1C(C)=O — lower, 88 °C
- O=C(O)CC[C@H]1O[C@@H](c2ccccc2)c2ccccc2N(Cc2ccccc2)C1=O (relative stereo) — lower, 112 to 114 °C
- CS(=O)(=O)c1ccc(-c2[nH]nc3c2-c2ccccc2CC3)cc1 — lower, 178 to 180 °C
- COc1c(Nc2ncc(Cl)c(Nc3ccccc3S(=O)(=O)N3CCC(O)C3)n2)ccc2c1CCCC(NCCO)C2 (stereo not drawn) — lower, 90 to 92 °C
- CCCC(=O)c1cnc2c(OCCO)cccc2c1Nc1ccccc1C — lower, 125 to 127 °C
- CC(C)(C)NC(=O)c1ccccc1C(C(=O)C(C)(C)C)c1ccccc1 (stereo not drawn) — lower, 157 to 161 °C
- Nc1ncnc2ncn(Cc3ccccc3)c12 — higher, 252 to 255 °C
- CC(C)(OCc1coc(-c2ccc(Cl)cc2)n1)C(=O)O — lower, 144 to 145 °C
- COC(=O)c1ccc2[nH]c(=O)oc2c1 — lower, 149 to 151 °C
- COC(=O)c1nc(NC(=O)Nc2ccccc2)ccc1Oc1nc(OC)cc(OC)n1 — higher, 236 to 237 °C
- N=C(N)NCc1ccc(OCCC2Oc3ccccc3N(Cc3ccccc3Cl)C2=O)cc1 (stereo not drawn) — lower, 180 to 182 °C
- Cc1nc(CC2OC(CO)C(O)C2O)n2nc(Cl)ccc12 (stereo not drawn) — lower, 171 to 174 °C
- O=CNNc1ccc(NS(=O)(=O)c2cccc([N+](=O)[O-])c2)cc1 — lower, 188 to 191 °C
- CC(C)(C)OC(=O)NC(Cc1ccc(OCc2ccccc2)cc1)C(=O)NCC(=O)OCc1ccccc1 (stereo not drawn) — lower, 101 to 104 °C
- CCOC(=O)CNc1ncccc1NC(=O)c1ccccn1 — lower, 98 to 100 °C
- Nc1cnc(NCCSCc2csc(CN3CCCCC3)c2)[nH]c1=O — lower, 150 to 155 °C
- O=C1CCN(Cc2cc([N+](=O)[O-])ccc2O)CC1C(c1ccccc1)c1ccccc1 (stereo not drawn) — lower, 177 to 178 °C
- CC(C)NCCNc1ccc2ncc(Br)n2n1 — lower, 87 to 88 °C
- CC(C)c1ccc2ccc(N)nc2n1 — lower, 158 to 160 °C
- CCCCCCCCC(=O)Nc1ccc([N+](=O)[O-])cc1 — lower, 76 to 76.5 °C
- COc1cc2c(cc1N1CCN(CC3Cc4ccccc4C3)CC1)OC=CCO2 — lower, 120 to 122 °C
- CCCn1c(=O)cc(OCC)n(Cc2ccc(-c3ccccc3-c3nnn[nH]3)cc2)c1=O — lower, 108 to 119 °C
- CN[C@@H]1COc2ccc(Cl)c(-c3ccccc3Cl)c2O1 — lower, 105 °C
- C=C(CCC)C(=O)c1ccc(OCCCC(=O)O)c(Cl)c1Cl — lower, 85 to 87 °C
- CCCN(CCCCNC(=O)N1CCc2cc(OC)c(OC)cc2C1)C1CCc2ncsc2C1 (stereo not drawn) — lower, 106 °C
- COc1cc2c(=O)n3cccc3cnc2cc1OCc1ccccc1 — lower, 58 to 61 °C
- CCOC(=O)c1ccc(C(F)(F)F)c(OC2CCOC2)n1 (stereo not drawn) — lower, 45 to 45.5 °C
- CCOC(=O)CCc1cn(Cc2ccc(C(=O)NCc3nc(-c4ccccc4)oc3C)cc2)nc1-c1ccccc1 — lower, 190 to 191 °C
- Nc1cccc(CC(=O)O)c1 — lower, 116 to 121 °C
- C=CCOc1ccc(C[C@@H](NC(C)=O)C(=O)OC)cc1 — lower, 90 °C
- COc1ccc(-c2cc3ncnc(Nc4ccc5[nH]ccc5c4)c3s2)cn1 — higher, 243 to 249 °C
- CN1C(=O)OC[C@@H]1Cc1ccc([N+](=O)[O-])cc1 — lower, 146 to 147 °C
- CC1=C(C#N)C(c2cncc3ncc(-c4ccccc4)cc23)C(C(=O)OC(C)C)=C(C)N1 (stereo not drawn) — lower, 192 °C
- COC(=O)[C@H](Cc1ccc(NC(=O)c2c(Cl)cccc2Cl)cc1)NC(=O)C1(CCNC(C)=O)CCCC1 — lower, 190 to 194 °C
- O=C1NC(=O)C(c2cn(CCCO)c3ccc(F)cc23)=C1c1cccc(NCC(O)CO)c1 (stereo not drawn) — lower, 118 to 125 °C
- COC(=O)CCCC#Cc1cc(Cl)ccc1NS(=O)(=O)c1ccc2c(c1)CCC(=O)N2 — lower, 53 to 57 °C
- CCn1c2ccccc2c2cc(OC)c(C(=O)O)cc21 — lower, 130 to 147 °C
- CC(C(=O)N1c2ccccc2N(C)C(=O)c2cnc(-c3ccccc3)nc21)N1CCCCC1 (stereo not drawn) — lower, 214 to 215 °C
- COc1cc(Oc2cccc(C)c2)nc(C(=O)Nc2ccc(C)cc2)c1 — lower, 110 to 114 °C
- CCOC(=O)c1ccc(Oc2cccc3[nH]c4cnc(C(=O)OC(C)C)c(COC)c4c23)o1 — lower, 191 to 192 °C
- CC(C)CN1C(=O)[C@H](CCCC#N)C[C@H]1CO — lower, 46 to 48 °C
- Cc1nc(-c2cccc3ccccc23)n2cn[nH]c(=O)c12 — higher, 261 to 263 °C
